Test [1] concerns Candida albicans (SC5314). The test is described as follows: Broth microdilution MIC (Example 1). The note with it: in the presence of 1 μg/mL fluconazole; for MIC: Candida albicans, SC5314, read-out: MIC against Candida albicans (SC5314). The format is cell-based. How it is done: (§1) MICs/minimum effective concentrations (MECs) were determined for each of the novel analogs against the three major human fungal pathogens, A. fumigatus, C. neoformans, and C. albicans. […] Thus, analogs of FK506 and FK520 can tolerate up to 100-fold reduction in antifungal activity and still be considered for in vivo testing. For C. neoformans, MICs were the most uniform and ranged from 0.2 to 2 μg/mL, which is between 4- and 40-fold reduced for antifungal activity.
(§2) In vitro antifungal activities of FK506, FK520, and analogs were assessed in RPMI 1640 (Sigma-Aldrich) for all strains tested. MICs/minimum effective concentrations (MECs) for each drug were measured using modified Clinical and Laboratory Standards Institute (CLSI) M38-A2 and M27-A3 standard in vitro antifungal susceptibility protocols. Broth microdilution assays for MIC/MEC assessment were performed as described previously (see, Juvvadi P R, et al., 2019, Nat Commun 10:4275). All antifungal assays with C. neoformans were performed at 37° C. Antifungal susceptibility testing for C. albicans was performed in the presence of a uniform 1 μg/mL concentration of fluconazole to sensitize the organism to calcineurin inhibition.
Background: Broth dilution looks for growth in wells or tubes with falling amounts of substance.

Test [2] deals with Cryptococcus neoformans (H99). The test is described as follows: Broth microdilution MIC (Example 1). It counts as cell-based. The note with it: for MIC: Cryptococcus neoformans, read-out: MIC against Cryptococcus neoformans (H99). The protocol: as §1, §2
The test system of test [3] is Aspergillus fumigatus. Briefly: Broth microdilution MIC/MEC (Example 1). It counts as cell-based. The following applies: for minimal effective concentration: Aspergillus fumigatus, strain Af293, read-out: MEC against Aspergillus fumigatus (Af293). How it is done: as §1
To assess the antifungal activity against other human fungal pathogens, JH-FK-05 was selected to test against a panel of pathogenic molds and drug-resistant A. fumigatus strains (Table 4). JH-FK-05 registered MECs as low as 1 μg/mL for some of these highly recalcitrant species, such as Mucor circinelloides, Rhizopus oryzae, and pan azole-resistant A. fumigatus (strain F14946).
as §2

The test system of a further test is Candida albicans. Briefly: MIC assay (Example 3). The format is cell-based. The following applies: for MIC: Candida albicans, SC5314, read-out: MIC against Candida albicans (SC5314). The protocol: (§3) In vitro antifungal activity was assessed for all fungal strains in RPMI 1640 (Sigma-Aldrich R1383). MICs were measured using Clinical and Laboratory Standards Institute (CLSI) M38-A2 and M27-A3 standard in vitro antifungal susceptibility protocols. C. neoformans and A. fumigatus testing was performed at 37° C. MECs for A. fumigatus were recorded after 48 h of growth. C. albicans testing was performed at 30° C. with a uniform concentration of 2 μg/mL of fluconazole to sensitize the cells to calcineurin inhibition.
(§4) C. neoformans clinical isolate H99 and congenic-derived strain KN99α were used (see, Nielsen K, et al., 2003. Infect Immun 71:4831-4841). KN99α-derived frr1Δ deletion mutants with nourseothricin resistance markers as part of the Madhani deletion collection (NIH funding R01AI100272) were used. C. deneoformans strains used include JEC21 and derived C21F2 (CNB1-1) and C21F3 (frr1-3) strains (see, Odom A, et al., 1997. EMBO J 16:2576-2589; Moore T D, Edman J C. 1993. Mol Cell Biol 13:1962-1970; Fox D S, et al., 2001. Mol Microbiol 39:835-849). C. albicans strain SC5314 is the wild-type strain from which mutants YAG171 (rbp1/rbp1) and YAG237 (CNB1-1/CNB1) were derived (see, Cruz M C, et al., 2001. Antimicrob Agents Chemother 45:3162-3170). A. fumigatus strain akuB^Ku80 and a derived FKBP12 mutant fkbp12A were used during antifungal screening (see, Falloon K, et al., 2015. PLoS One 10:e0137869).

The subject of a further test is Cryptococcus neoformans. The test is described as follows: MIC assay (Example 3). The following applies: for antifungal activity at 37° C. versus 30° C.: C. neoformans; for MIC: Cryptococcus neoformans. It counts as cell-based. How it is done: as §3, §4
The subject of test [4] is IL-2 expression in primary mouse CD4+ T cells (mammalian calcineurin). Briefly: In vitro immunosuppressive activity, IL-2 expression (Example 3). The format is cell-based. The following applies: 72 h. The protocol:
Modifications at the C-22 position reduce inhibition of mammalian calcineurin signaling Mammalian calcineurin inhibition was then assessed and found to be reduced for these FK520 analogs. The inhibition of mammalian calcineurin was assessed by measuring the reduction of IL-2 expression from primary mouse CD4^+ T cells cultured in the presence of FK506, FK520, or an analog. Calcineurin activity is required for T cell activation and cytokine production, and IL-2 production serves as an effective measure of mammalian calcineurin activity. After culturing mouse CD4′ T cells for 72 h, IL-2 expression was analyzed by flow cytometry to evaluate the immunosuppressive activity of the analogs. […] However, compound concentrations that permit high IL-2 expression are less likely to result in cell death.
Spleen and lymph nodes from C57BL/6 mice were collected and homogenized through a 40-μm filter. Pan-CD4^+ T cells were enriched using the MagniSort Mouse CD4 T Cell Enrichment Kit (Invitrogen). Thereafter, CD4^+CD25^−CD62L^hiCD44^lo naïve CD4^+ T cells were FACS-sorted using a MoFlo Astrios cell sorter (Beckman Coulter). Naïve CD4^+ T cells were cultured in Iscove's Modified Dulbecco's Medium supplemented with 10% fetal bovine serum (FBS), penicillin (10 U/mL), streptomycin (10 μg/mL), glutamine (2 mM), gentamicin (50 μg/mL), and β-mercaptoethanol (55 μM). Cells were cultured for 72 h on anti-hamster IgG-coated plates with hamster anti-CD3s antibodies, hamster anti-CD28 antibodies, neutralizing anti-IL-4 antibodies, recombinant IL-12 (10 ng/mL), and recombinant IL-2 (50 U/mL). During this culture, cells were incubated with serially diluted drugs suspended in DMSO.

In test [5] the test system is Aspergillus fumigatus. The test is described as follows: MEC assay (Example 3).
The mark [6] stands for this setting: MIC80, 30° C. with 2 μg/mL fluconazole.
[7] abbreviates: MIC90, 37° C., read-out: MIC against Cryptococcus neoformans (H99).

Each structure is given as a SMILES string. Converted amounts (≈) assume the structure as drawn. Where two headings read alike, the source gives them in different places.

The record followed here is patent publication US20260315446A1, “ANTIFUNGAL COMPOUNDS AND USES THEREOF” (priority 2023, published 2026).

Turning to `C=CCC1C=C(C)CC(C)CC(OC)C2OC(O)(C(=O)C(=O)N3CCCCC3C(=O)OC(C(C)=CC3CCC(O)C(OC)C3)C(C)C(O)CC1=O)C(C)CC2OC` (stereo not shown) [FK506, reference compound], the MIC in test [1] is 0.02 µg/mL; in test [2] (37° C.) it was 0.05 µg/mL (≈ 0.0622 µM); in the test with Candida albicans (setting [6]), 0.02 µg/mL (≈ 0.0249 µM); in the test on Cryptococcus neoformans (setting [7]), 0.05 µg/mL (≈ 0.0622 µM); with Cryptococcus neoformans (Table 8, read-out: H99 MIC90) it was 0.05 µg/mL (≈ 0.0622 µM). In addition, the minimal effective concentration in the test with Aspergillus fumigatus [3] stood at 0.016 µg/mL. Also, the “antifungal activity at 37° C. versus 30° C.” value in the test on Cryptococcus neoformans is “potent antifungal activity against C. neoformans at 37 °C but not at 30 °C”. Further, the IC50 (usually the concentration at which inhibition is half-maximal) in test [4] was found to be 90 pM. Further, the “MEC against Aspergillus fumigatus (akuB^Ku80)” value (from here on “MEC … (akuB^Ku80)”) with Aspergillus fumigatus [5] (strain akuB^Ku80) was 0.04 µg/mL.
With `CC[C@@H]1/C=C(\C)C[C@H](C)C[C@H](OC)[C@H]2O[C@@](O)(C(=O)C(=O)N3CCCC[C@H]3C(=O)O[C@H](/C(C)=C/[C@@H]3CC[C@@H](O)[C@H](OC)C3)[C@H](C)[C@@H](O)CC1=O)[C@H](C)C[C@@H]2OC` [FK520, reference compound], the “MIC against Candida albicans (SC5314)” value in test [1] stood at 0.02 µg/mL; with Candida albicans (setting [6]) it was 0.02 µg/mL (≈ 0.0253 µM). In addition, the “MIC against Cryptococcus neoformans (H99)” value in test [2] (37° C.) is 0.05 µg/mL (≈ 0.0631 µM); in the test on Cryptococcus neoformans (MIC90, 37° C.) it was 0.05 µg/mL (≈ 0.0631 µM). For the same compound, the “antifungal activity (MIC/MEC range)” value in test [2] (range over C. neoformans, C. albicans and A. fumigatus) was in the range of 0.016 to 0.05 µg/mL. Further, in the test with Cryptococcus neoformans, the “antifungal activity at 37° C. versus 30° C.” value was “potent antifungal activity against C. neoformans at 37 °C but not at 30 °C”. Also, the “H99 MIC90” value in the test with Cryptococcus neoformans (Table 8) was 0.05 µg/mL. For the same compound, the IC50 in test [4] was found to be 300 pM. For the same compound, the “MEC … (akuB^Ku80)” value with Aspergillus fumigatus [5] turned out to be 0.16 µg/mL.
For `C=CC[C@@H]1/C=C(\C)C[C@H](C)C[C@H](OC)[C@H]2O[C@@](O)(C(=O)C(=O)N3CCCC[C@H]3C(=O)O[C@H](/C(C)=C/[C@@H]3CC[C@@H](O)[C@H](OC)C3)[C@H](C)[C@@H](O)C/C1=N/NC(=O)CC)[C@H](C)C[C@@H]2OC` [JH-FK-02], the MIC in test [1] was 1.6 µg/mL; in test [2] (37° C.) it was 2 µg/mL (≈ 2.29 µM). Further, the minimal effective concentration with Aspergillus fumigatus [3] was 2 µg/mL.
Consider `CC[C@@H]1/C=C(\C)C[C@H](C)C[C@H](OC)[C@H]2O[C@@](O)(C(=O)C(=O)N3CCCC[C@H]3C(=O)O[C@H](/C(C)=C/[C@@H]3CC[C@@H](O)[C@H](OC)C3)[C@H](C)[C@@H](O)C/C1=N/NC(C)=O)[C@H](C)C[C@@H]2OC` [JH-FK-05], for which the MIC worked out at 0.8 µg/mL in test [1] and 1 µg/mL (≈ 1.18 µM) in test [2] (37° C.). In addition, the “fold reduction of antifungal activity compared to FK506” value in test [2] (C. neoformans) was determined as 20 fold. The “broad-spectrum antifungal activity / MIC ranking” value in test [2] (C. neoformans, C. albicans, A. fumigatus) was “maintained high levels of broad-spectrum antifungal activity across the three species”. Further, the minimal effective concentration in the test on Aspergillus fumigatus [3] is 2 µg/mL. Besides, the MIC/MEC in the test with Aspergillus fumigatus [3] (echinocandin-resistant strain EMFR-S678P) was found to be 2 µg/mL (≈ 2.36 µM).
As for `CC[C@@H]1/C=C(\C)C[C@H](C)C[C@H](OC)[C@H]2O[C@@](O)(C(=O)C(=O)N3CCCC[C@H]3C(=O)O[C@H](/C(C)=C/C3CC[C@@H](O)[C@H](OC)C3)[C@H](C)[C@@H](O)C/C1=N/NC(=O)OC)[C@H](C)C[C@@H]2OC` (stereo partly shown) [JH-FK-08], the MIC/MEC is greater than 25 µg/mL against Candida albicans; greater than 25 µg/mL in the test on Cryptococcus neoformans (strain frr1Δ (KN99α frr1Δ::NAT), MIC90, 37° C.); 1.25 µg/mL (≈ 1.45 µM) against Aspergillus fumigatus [5] (strain akuB^Ku80); greater than 20 µg/mL against Aspergillus fumigatus [5] (strain Δfkbp12 (akuB^Ku80 fkbp12Δ)). Moreover, the MIC with Candida albicans (setting [6]) turned out to be 0.4 µg/mL (≈ 0.463 µM); in the test on Cryptococcus neoformans (setting [7]), 0.8 µg/mL (≈ 0.926 µM); in the test with Cryptococcus neoformans (Table 8, read-out: H99 MIC90), 0.8 µg/mL (≈ 0.926 µM). For the same compound, the “antifungal activity at 37° C. versus 30° C.” value in the test on Cryptococcus neoformans is “potent antifungal activity against C. neoformans at 37 °C but not at 30 °C”. Moreover, the IC50 in test [4] came out at 42600 pM. Besides, in the test with Aspergillus fumigatus [5] (strain akuB^Ku80), the “MEC … (akuB^Ku80)” value was 1.3 µg/mL.
